Legend:
KMS.12.BM cells = assay: KMS.12.BM cell viability assay (Cell Titer-GLO, ATP quantitation); assay type: cell-based; conditions: Homo sapiens, 72 h, 3 days, concentration required for 50% cell death, read-out: KMS cellular IC50
Experimental: KMS.12.BM cell line (human myeloma) was purchased from JCRB (Osaka, Japan) and maintained in RPMI with 10% FBS culture medium. To measure the cytotoxic activity of the compounds through ATP quantitation, the KMS.12.BM cells are plated in the RPMI culture medium at 5000 cells/well/per 100 μL into a 96-well polystyrene clear black tissue culture plate (Greiner-bio-one through VWR, NJ), in the presence or absence of a concentration range of test compounds. After 3 days, […] Cell Titer-GLO Luminescent (Promega, Madison, Wis.) cell culture agent is added to each well for 10 minutes at room temperature to stabilize the luminescent signal. This determines the number of viable cells in culture based on quantitation of the ATP present, which signals the presence of metabolically active cells. Luminescence is measured with the Top Count 384 (Packard Bioscience through Perkin Elmer, Boston, Mass.). Compound inhibition is determined relative to cells cultured with no drug and the IC50 is reported as the compound concentration required for 50% cell death. IC50 data for the Examples is presented in Table 9 as determined by Assay B1.

BRD4-BD1 = BRD4-BD1 (Homo sapiens (Human), UniProt O60885); assay: BRD4 AlphaScreen assay, BRD4-BD1; assay type: binding; conditions: H4Ac4 peptide, 75 min, room temperature, read-out: BRD4 BD-1 enzyme IC50
Experimental: (§1) BRD4-BD1 and BRD4-BD2 assays were conducted in white 384-well polystyrene plate in a final volume of 20 μL for BD1 and 40 μL for BD2. Inhibitors were first serially diluted in DMSO and added to the plate wells before the addition of other reaction components. […] After plate sealing, the plate was incubated in the dark at room temperature for 75 min. before reading on a PHERAstar FS plate reader (BMG Labtech). IC50 determination was performed by fitting the curve of percent control activity versus the log of the inhibitor concentration using the GraphPad Prism 5.0 software.

C-myc = assay: KMS.12.BM C-myc ELISA assay; assay type: cell-based; conditions: Homo sapiens; KMS.12.BM cells, 2 hours, concentration required for 50% C-myc inhibition
Experimental: KMS.12.BM cell line (human myeloma) was purchased from JCRB (Osaka, Japan) and maintained in RPMI with 10% FBS culture medium. To measure the C-myc inhibitory activity of the compounds, the KMS.12.BM cells are plated in the RPMI culture medium at 75000 cells/well/per 200 μL into a 96-well flat bottom polystyrene tissue culture plate (Corning through VWR, NJ), in the presence or absence of a concentration range of test compounds. After 2 hours, cell are pelleted and lysed with Cell Extraction Buffer (BioSource, Carlsbad, Calif.) in the presence of protease inhibitors (Life Technologies, Grand Island, N.Y. and Sigma, St Louis, Mo.). Clarified lyses are tested in a C-myc commercial ELISA (Life Technologies, Grand Island, N.Y.). Compound inhibition is determined relative to cells cultured with no drug and the IC50 is reported as the compound concentration required for 50% C-myc inhibition. IC50 data for the Examples is presented in Table 10 as determined by Assay C1.

BRD4-BD2 = BRD4-BD2 (Homo sapiens (Human), UniProt O60885); assay: BRD4 AlphaScreen assay, BRD4-BD2; assay type: binding; conditions: H4Ac4 peptide, 75 min, room temperature, read-out: BRD4 BD-2 enzyme IC50
Experimental: as §1

Compound	IC50 (BRD4-BD1)	IC50 (C-myc)	IC50 (BRD4-BD2)	IC50 (KMS.12.BM cells)
COc1c(-c2cn(C)c(=O)c3[nH]ccc23)ccc2c1n(CCCC#N)c(=O)n2C [Example 53, 4-[7-Methoxy-3-methyl-6-(6-methyl-7-oxo-6,7-dihydro-1H-pyrrolo[2,3-c]pyridin-4-yl)-2-oxo-2,3-dihydro-1H-benzimidazol-1-yl]butanenitrile]	100 to 1000 nM	≤ 1000 nM	< 100 nM	≤ 1000 nM
Cn1cc(-c2ccc3c([nH]c(=O)n3C)c2OCc2ccc(F)cc2F)c2cc[nH]c2c1=O [Example 28, 4-[(2,4-Difluorobenzyl)oxy]-1-methyl-5-(6-methyl-7-oxo-6,7-dihydro-1H-pyrrolo[2,3-c]pyridin-4-yl)-1,3-dihydro-2H-benzimidazol-2-one]	100 to 1000 nM	1000 to 10000 nM	< 100 nM	≤ 1000 nM
CCn1cc(-c2ccc3c(ncn3C)c2Oc2ccc(F)cc2F)c2cc[nH]c2c1=O [Example 83, 4-[4-(2,4-Difluorophenoxy)-1-methyl-1H-benzimidazol-5-yl]-6-ethyl-1,6-dihydro-7H-pyrrolo[2,3-c]pyridin-7-one]	100 to 1000 nM	–	< 100 nM	≤ 1000 nM
COc1c(-c2cn(C)c(=O)c3[nH]ccc23)ccc2c1n(CCc1ccccc1)c(=O)n2C [Example 49, 4-Methoxy-1-methyl-5-(6-methyl-7-oxo-6,7-dihydro-1H-pyrrolo[2,3-c]pyridin-4-yl)-3-(2-phenylethyl)-1,3-dihydro-2H-benzimidazol-2-one]	100 to 1000 nM	–	< 100 nM	≤ 1000 nM
Cn1cc(-c2cc(CNCC3CC3)c3[nH]c(=O)[nH]c3c2Oc2ccc(F)cc2F)c2cc[nH]c2c1=O [Example 81, 7-{[(Cyclopropylmethyl)amino]methyl}-4-(2,4-difluorophenoxy)-5-(6-methyl-7-oxo-6,7-dihydro-1H-pyrrolo[2,3-c]pyridin-4-yl)-1,3-dihydro-2H-benzimidazol-2-one]	100 to 1000 nM	–	< 100 nM	≤ 1000 nM
Cn1cc(-c2ccc3c([nH]c(=O)n3C)c2Sc2ccccc2)c2cc[nH]c2c1=O [Example 97, 1-Methyl-5-(6-methyl-7-oxo-6,7-dihydro-1H-pyrrolo[2,3-c]pyridin-4-yl)-4-(phenylthio)-1,3-dihydro-2H-benzimidazol-2-one]	< 100 nM	–	< 100 nM	≤ 1000 nM
CNC(=O)Cn1cnc2ccc(-c3cn(C)c(=O)c4[nH]ccc34)c(Oc3ccc(F)cc3F)c21 [Example 35, 2-[7-(2,4-Difluorophenoxy)-6-(6-methyl-7-oxo-6,7-dihydro-1H-pyrrolo[2,3-c]pyridin-4-yl)-1H-benzimidazol-1-yl]-N-methylacetamide]	< 100 nM	–	< 100 nM	≤ 1000 nM
Cn1cc(-c2cc(CNCc3ccccc3)c3[nH]c(=O)[nH]c3c2Oc2ccc(F)cc2F)c2cc[nH]c2c1=O [Example 80, 7-[(Benzylamino)methyl]-4-(2,4-difluorophenoxy)-5-(6-methyl-7-oxo-6,7-dihydro-1H-pyrrolo[2,3-c]pyridin-4-yl)-1,3-dihydro-2H-benzimidazol-2-one]	< 100 nM	–	< 100 nM	≤ 1000 nM
CN1C(=O)COc2ccc(-c3cn(C)c(=O)c4[nH]ccc34)c(Oc3ccccc3)c21 [Example 100, 4-Methyl-6-(6-methyl-7-oxo-6,7-dihydro-1H-pyrrolo[2,3-c]pyridin-4-yl)-5-phenoxy-2H-1,4-benzoxazin-3(4H)-one]	100 to 1000 nM	–	< 100 nM	≤ 1000 nM

Second part, led by results:

IC50 (BRD4-BD1)	IC50 (C-myc)	IC50 (BRD4-BD2)	Compound	IC50 (KMS.12.BM cells)
< 100 nM	≤ 1000 nM	< 100 nM	Cn1cc(-c2ccc3ncn(CCCC#N)c3c2Oc2ccccc2)c2cc[nH]c2c1=O [Example 51, 4-[6-(6-Methyl-7-oxo-6,7-dihydro-1H-pyrrolo[2,3-c]pyridin-4-yl)-7-phenoxy-1H-benzimidazol-1-yl]butanenitrile]	≤ 1000 nM
< 100 nM	≤ 1000 nM	< 100 nM	Cn1cc(-c2ccc3ncc(=O)[nH]c3c2Oc2ccc(F)cc2F)c2cn[nH]c2c1=O [Example 75, 8-(2,4-Difluorophenoxy)-7-(6-methyl-7-oxo-6,7-dihydro-1H-pyrazolo[3,4-c]pyridin-4-yl)quinoxalin-2(1H)-one]	≤ 1000 nM
< 100 nM	≤ 1000 nM	< 100 nM	Cn1cc(-c2ccc3c(ncn3CCc3ccccc3)c2Oc2ccccc2)c2cc[nH]c2c1=O [Example 48, 6-Methyl-4-[4-phenoxy-1-(2-phenylethyl)-1H-benzimidazol-5-yl]-1,6-dihydro-7H-pyrrolo[2,3-c]pyridin-7-one]	≤ 1000 nM
< 100 nM	≤ 1000 nM	< 100 nM	Cn1cc(-c2ccc3c([nH]c(=O)n3C)c2OCC2CC2)c2cc[nH]c2c1=O [Example 74, 4-(Cyclopropylmethoxy)-1-methyl-5-(6-methyl-7-oxo-6,7-dihydro-1H-pyrrolo[2,3-c]pyridin-4-yl)-1,3-dihydro-2H-benzimidazol-2-one]	≤ 1000 nM
< 100 nM	≤ 1000 nM	< 100 nM	Cn1cc(-c2ccc3[nH]cnc3c2OCC2CC2)c2cc[nH]c2c1=O [Example 12, 4-[4-(Cyclopropylmethoxy)-1H-benzimidazol-5-yl]-6-methyl-1,6-dihydro-7H-pyrrolo[2,3-c]pyridin-7-one]	≤ 1000 nM
< 100 nM	≤ 1000 nM	< 100 nM	Cn1cc(-c2ccc3c(ncn3CCC#N)c2Oc2ccccc2)c2cc[nH]c2c1=O [Example 113, 3-[5-(6-Methyl-7-oxo-6,7-dihydro-1H-pyrrolo[2,3-c]pyridin-4-yl)-4-phenoxy-1H-benzimidazol-1-yl]propanenitrile]	≤ 1000 nM
< 100 nM	≤ 1000 nM	< 100 nM	Cn1cc(-c2ccc3[nH]c(=O)[nH]c3c2Oc2ccccc2)c2cc[nH]c2c1=O [Example 22, 5-(6-Methyl-7-oxo-6,7-dihydro-1H-pyrrolo[2,3-c]pyridin-4-yl)-4-phenoxy-1,3-dihydro-2H-benzimidazol-2-one]	≤ 1000 nM
< 100 nM	–	< 100 nM	CCSc1c(-c2cn(C)c(=O)c3[nH]ccc23)ccc2c1[nH]c(=O)n2C [Example 98, 4-(Ethylthio)-1-methyl-5-(6-methyl-7-oxo-6,7-dihydro-1H-pyrrolo[2,3-c]pyridin-4-yl)-1,3-dihydro-2H-benzimidazol-2-one]	≤ 1000 nM
< 100 nM	–	< 100 nM	Cn1cc(-c2ccc3c(nc(CNC(=O)C4CC4)n3C)c2Oc2ccccc2)c2cc[nH]c2c1=O [Example 112, N-{[1-Methyl-5-(6-methyl-7-oxo-6,7-dihydro-1H-pyrrolo[2,3-c]pyridin-4-yl)-4-phenoxy-1H-benzimidazol-2-yl]methyl}cyclopropanecarboxamide]	≤ 1000 nM
< 100 nM	–	< 100 nM	Cn1cc(-c2ccc3c(c2OCC2CCC2)n(CCC2CCNCC2)c(=O)n3C)c2cc[nH]c2c1=O [Example 65, 4-(Cyclobutylmethoxy)-1-methyl-5-(6-methyl-7-oxo-6,7-dihydro-1H-pyrrolo[2,3-c]pyridin-4-yl)-3-(2-piperidin-4-ylethyl)-1,3-dihydro-2H-benzimidazol-2-one]	1000 to 10000 nM
